Experimental data: publication PMC7767178 (International Journal of Molecular Sciences, 2020)
Where two headings read alike, the source gives them in different places.

Tests used:
[1] = test system: Aeromonas veronii ACCC61732
Method: (§1) Briefly, the tested strains including Gram-negative bacteria, Gram-positive bacteria, and fungi were cultured to the logarithmic growth phase, diluted to 10^5 CFU/mL, and added into 96-well plates (90 μL/well). Two-fold serial dilutions of peptides or antibiotics dissolved in PBS were added to each well (10 μL/well). […] All experiments were repeated three times.

[2] = test system: Pseudomonas aeruginosa CICC21630; details: CICC21630
Method: as §1

S. aureus ATCC25923 = test system: S. aureus ATCC25923
Method: as §1

S. aureus ATCC546 = test system: S. aureus ATCC546
Method: as §1

A. veronii ATCC35624 = type: cell-based
S. hyicus 437-2 = type: cell-based
A. veronii ACCC61732 [3] = assay: Inner membrane permeability, PI staining, flow cytometry; type: cell-based
Method: To analyze effects of peptides on the inner membrane, A. veronii ACCC61732 cells were cultured to mid-log phase at 37 °C in MHB medium, washed thrice with PBS, and resuspended in the PBS buffer to 1 × 10^8 CFU/mL. […] After fixation with PI, the samples were detected by a fluorescent inverted microscope and FACS Calibur Flow Cytometer (BD, San Jose, CA, USA), respectively. Cell Quest Pro software (BD, San Jose, CA, USA) was used for the data analysis.

A. veronii ACCC61732 [4] = assay: ATP release, BacTiter-Glo; type: cell-based; details: 8×, 16× and 32× MIC, 60 min, 37 °C, luminescence, n = 3
Method: The assay was performed for three biological replicates at 37 °C, with luminescence recorded using a Tecan Infinite M1000 Pro plate reader. The fold reduction of ATP was calculated as: Fold reduction ATP = 1 − (Ltreat − Lmedia/Lcontrol − Lmedia), where Ltreat is the luminescence of treated cells, Lmedia is the luminescence of MHB without cells, and Lcontrol is the luminescence of untreated cells. Resultant graphs show mean (n = 3) and SEM for each data point, prepared in Prism 7 [46].

[5] = test system: A. veronii ACCC61732 genomic DNA; assay: CD spectra of genomic DNA with peptides; type: binding; details: mass ratios 2.5 and 10.0, 10 min, room temperature
Method: CD spectra were performed to examine the secondary structure of genomic DNA from A. veronii ACCC61732 after incubation with peptides. […] The mixtures were loaded into a cuvette of 1.0-mm path length and scanned from 190 to 330 nm at 25 °C using a Pistar π-180 CD spectrometer (Applied Photophysics Ltd., Surry, UK).

trypsin = details: pH 8
in vitro = details: mouse, 25% mouse serum
[6] = test system: A. veronii ACCC61732 biofilms; assay: Mouse model of catheter-associated biofilm infection, bacteria in catheter; type: in vivo, ICR mice; details: 5 μmol/kg peptide or CIP 24 h after catheter implantation, catheters collected after seven days, six mice per group
Method: Briefly, the catheter was cut into 1 cm segments; each piece was sterilized with 70% ethanol and then dried by air. Bacterial biofilms were developed on the catheter by placing individual segments into tubes containing 1.0 mL of a cell suspension (1 × 10^8 CFU/mL) in TSB. After incubation for 24 h at 37 °C, colonized catheters were recovered aseptically and rinsed with PBS to remove unbound bacteria. ICR female mice (20 ± 5 g) were anesthetized with isoflurane; the flanks were shaved and the skin was cleansed with alcohol. […] The incision was then covered with intact skin and closed with surgical suture line and the skin was disinfected. […] The untreated mice were used as the negative control and the mice with sterile catheter were used as the blank control. The mice were anesthetized and sacrificed after seven days. The catheters in the back of the mice were collected and thoroughly shaken in sterile PBS.

IL-10 = assay: Serum cytokine, ELISA, peritonitis model; type: in vivo; details: 1 μmol/kg, 24 h after treatment, range over mice
Method: Sera and organs (livers, kidneys, spleens, and lungs) were collected from the mice at 24 h post-treatment. The organs were homogenized in sterile PBS to evaluate bacterial translocation by colony counting. The levels of cytokines (TNF-α, IL-1β, IL-6, and IL-10) in sera were detected using the ELISA kits.

For `CC(C)[C@@H]1NC(=O)CNC(=O)[C@H](CC(N)=O)NC(=O)[C@H](CCCNC(=N)N)NC(=O)[C@H](Cc2ccc(O)cc2)NC(=O)[C@H](C(C)C)NC(=O)[C@@H](NC(=O)[C@@H](NC(=O)[C@H](CC(N)=O)NC(=O)[C@H](Cc2c[nH]c3ccccc23)NC(=O)[C@H](C)NC(=O)[C@H](Cc2ccccc2)NC(=O)[C@H](CCCN)N=C(N(C)C)N(C)C)C(C)C)CSSC[C@@H](C(=O)N[C@@H](Cc2c[nH]cn2)C(=O)N[C@@H](CCCNC(=N)N)C(=O)N[C@@H](CCCNC(=N)N)C(=O)N[C@@H](C)C(=O)N[C@@H](CC(N)=O)C(N)=O)NC(=O)[C@H](C(C)C)NC(=O)[C@H](CCCNC(=N)N)NC1=O` (stereo in doubt) [Guo-N6NH2], the MIC [1] was 3.04 µM, the MIC ([1]; Aeromonas veronii ACCC61732 (MDR), broth dilution, 37 °C, 16–18 h, three experiments) was 8 µg/mL and the “MIC, control” value ([1]; Table S6 control: absence of temperature, acid and alkali, salt and enzyme condition) was 8 µg/mL. The MIC [2] was >24.3 µM, the MIC (S. aureus ATCC25923; ATCC25923) was 12.16 µM and the MIC (S. aureus ATCC25923; S. aureus ATCC25923, broth dilution, 37 °C, 16–18 h, three experiments) was 32 µg/mL. The MIC (S. aureus ATCC546; ATCC546) was 6.08 µM, the MIC (S. aureus ATCC546; S. aureus ATCC546, broth dilution, 37 °C, 16–18 h, three experiments) was 16 µg/mL and the MIC (A. veronii ATCC35624; A. veronii ATCC35624, broth dilution, 37 °C, 16–18 h, three experiments) was 32 µg/mL. For the same molecule, the MIC (A. veronii ATCC35624; ATCC35624) was 12.16 µM, the MIC (S. hyicus 437-2) was 12.16 µM and the MIC (S. hyicus 437-2; S. hyicus 437-2 (clinical isolate, pig farm), broth dilution, 37 °C, 16–18 h, three experiments) was 32 µg/mL. For the same molecule, the “Permeability (PI-positive cells)” value (A. veronii ACCC61732 [3]; 1× MIC, 0.5 h) was 0.63%, the “Permeability (PI-positive cells)” value (A. veronii ACCC61732 [3]; 1× MIC, 2 h) was 4.96% and the “Permeability (PI-positive cells)” value (A. veronii ACCC61732 [3]; 2× MIC, 0.5 h) was 0.55%. The “Permeability (PI-positive cells)” value (A. veronii ACCC61732 [3]; 2× MIC, 2 h) was 1.91%, the “Permeability (PI-positive cells)” value (A. veronii ACCC61732 [3]; 4× MIC, 0.5 h) was 0% and the “Permeability (PI-positive cells)” value (A. veronii ACCC61732 [3]; 4× MIC, 2 h) was 2.16%. For the same molecule, the ATP release (A. veronii ACCC61732 [4]) was 66.23–92.09%, the “effect on CD spectrum of genomic DNA” value [5] was “do not affect the double helix of genomic DNA” and the “MIC after trypsin treatment” value (trypsin) was “lost their activity”. For the same molecule, the remaining at 2 h (in vitro) was 84%, the remaining at 4.5 h (in vitro) was 56.8% and the remaining at 6 h (in vitro) was 44.2%.
In the case of `O=C(O)c1cn(C2CC2)c2cc(N3CCNCC3)c(F)cc2c1=O` [CIP, ciprofloxacin, reference compound], the ATP release (A. veronii ACCC61732 [4]) is reported as 7.06–47.60%, the “decrease of bacterial cells in the catheter” value [6] is reported as 28.72% and the “serum level of IL-10” value (IL-10) is reported as 10.1 to 16.41 pg/mL.
